Earlier results on two compounds are cited in patent US20100062066A1, “Formulations of Tetrahydropyridine Antiplatelet Agents for Parenteral or Oral Administration” (Acusphere, Inc, priority 2006, published 2010).

Structures are written as SMILES.

The series deals with platelet aggregation. The conditions noted are these: background statement on clopidogrel enantiomers.

Regarding `COC(=O)C(c1ccccc1Cl)N1CCc2sccc2C1` (single isomer, unassigned) [R-enantiomer], the anti-aggregation activity result is on record as “does not exhibit any anti-aggregation activity”. As to `COC(=O)[C@H](c1ccccc1Cl)N1CCc2sccc2C1` (single isomer, unassigned; enantiomer 2) [S-enantiomer, 2-(2-chlorophenyl)-2-(2,4,5,6,7,7a-tetrahydrothieno[3,2-c]pyridine)-5-yl-acetic acetic acid methyl ester], the anti-aggregation activity entry was “biologically active”.
